# From patent US20060069132A1, “Azolecarboxamide herbicides” (priority 2004, published 2006)
# What was measured:
# [1] = tested on: ducksalad; test: Test B flooded paddy test; assay type: in vivo, Heteranthera limosa; conditions: 1000 g ai/ha, scale 0 to 100 (0 no effect, 100 complete control)
# How it was run: (§1)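 Scale 0–100: zero equals no visible effect, 100 complete control, judged by eye relative to controls. Timing: 13 to 15 days in greenhouse post-treatment. Growth stage at spraying: two leaves (paddy) or one to four leaves, 2–18 cm (postemergence).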
# [2] = tested on: barnyardgrass; test: Test A pre-/postemergence herbicide test; assay type: in vivo, Echinochloa crus-galli
# How it was run: (§2)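 Seeds sown in sandy loam received a preemergence directed soil spray of compound in non-phytotoxic solvent with surfactant; postemergence plants (2–10 cm, one- to two-leaf stage) were sprayed to runoff at the same time. After ~10 days in greenhouse, injury was rated visually versus untreated controls (0 = no effect, 100 = complete control).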
# [3] = tested on: blackgrass; test: Test B postemergence herbicide test; assay type: in vivo, Alopecurus myosuroides; conditions: postemergence
# How it was run: as §1
# [4] = tested on: cocklebur; test: Test B pre-/postemergence herbicide test; assay type: in vivo, Xanthium strumarium; conditions: for Cocklebur plant response rating: postemergence
# How it was run: (§3)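 Formulation: non-phytotoxic solvent mix with surfactant. Timing: preemergence on seed and postemergence on 2–18 cm plants, applied concurrently. Readout after 13–15 d greenhouse: visual 0–100 control rating against controls.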
# [5] = tested on: morningglory; test: Test B pre-/postemergence herbicide test; assay type: in vivo, Ipomoea coccinea; conditions: for Morningglory plant response rating: postemergence
# How it was run: as §3
# [6] = tested on: rice; test: Test B pre-/postemergence herbicide test; assay type: in vivo, Oryza sativa; conditions: preemergence
# How it was run: (§4)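 Seeds were planted and treated preemergence with compounds formulated in a non-phytotoxic solvent mixture containing surfactant, while plants at the 1- to 4-leaf stage (2 to 18 cm) received postemergence sprays. Flooded paddy plants were grown to the 2-leaf stage. After 13 to 15 days in a greenhouse, injury was visually rated 0–100 against untreated controls.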
# [7] = tested on: velvetleaf; test: Test A pre-/postemergence herbicide test; assay type: in vivo, Abutilon theophrasti
# How it was run: as §2
# [8] = tested on: large crabgrass; test: Test A pre-/postemergence herbicide test; assay type: in vivo, Digitaria sanguinalis
# How it was run: as §2
# [9] = tested on: lambsquarters; test: Test B pre-/postemergence herbicide test; assay type: in vivo, Chenopodium album; conditions: for Lambsquarters plant response rating: postemergence
# How it was run: as §4
# [10] = tested on: giant foxtail; test: Test B pre-/postemergence herbicide test; assay type: in vivo, Setaria faberi; conditions: for Foxtail, Giant plant response rating: postemergence
# How it was run: as §4
# [11] = tested on: wheat; test: Test B postemergence herbicide test; assay type: in vivo, Triticum aestivum; design: key to Wheat plant response rating: 0 = no effect, 100 = complete control; conditions: postemergence
# How it was run: (§5)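 Greenhouse test; postemergence application to plants at 1–4 leaves (2–18 cm); paddy species at 2 leaves; evaluated visually vs controls at 13–15 days; scale 0–100 (100 = complete control).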
# [12] = tested on: wild oat; test: Test B postemergence herbicide test; assay type: in vivo, Avena fatua; conditions: postemergence
# How it was run: as §5
# [13] = tested on: redroot pigweed; test: Test A pre-/postemergence herbicide test; assay type: in vivo, Amaranthus retroflexus
# How it was run: as §2
# [14] = tested on: Surinam grass; test: Test B pre-/postemergence herbicide test; assay type: in vivo, Urochloa decumbens; conditions: for Surinam Grass plant response rating: postemergence
# How it was run: as §4
# [15] = tested on: rice; test: Test B flooded paddy test; assay type: in vivo, Oryza sativa; conditions: 1000 g ai/ha, scale 0 to 100 (0 no effect, 100 complete control)
# How it was run: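 Visual ratings, 0 (no effect) to 100 (complete control), made versus controls after 13–15 d greenhouse. Paddy plants treated at 2-leaf stage; postemergence plants at 1- to 4-leaf stage, 2–18 cm tall.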
# [16] = tested on: pigweed; test: Test B pre-/postemergence herbicide test; assay type: in vivo, Amaranthus retroflexus; conditions: for Pigweed plant response rating: postemergence
# How it was run: as §4
# [17] = tested on: morningglory; test: Test A pre-/postemergence herbicide test; assay type: in vivo, Ipomoea spp.
# How it was run: as §2
# [18] = tested on: small flower umbrella sedge; test: Test B flooded paddy test; assay type: in vivo, Cyperus difformis; conditions: 1000 g ai/ha, scale 0 to 100 (0 no effect, 100 complete control)
# How it was run: as §1
# [19] = tested on: barnyardgrass; test: Test B flooded paddy test; assay type: in vivo, Echinochloa crus-galli; conditions: 1000 g ai/ha, scale 0 to 100 (0 no effect, 100 complete control)
# How it was run: as §1
# [20] = tested on: corn; test: Test B pre-/postemergence herbicide test; assay type: in vivo, Zea mays; conditions: for Corn plant response rating: postemergence
# How it was run: as §4
# [21] = tested on: large crabgrass; test: Test B pre-/postemergence herbicide test; assay type: in vivo, Digitaria sanguinalis; conditions: for Crabgrass, Large plant response rating: postemergence
# How it was run: as §4
# [22] = tested on: giant foxtail; test: Test A pre-/postemergence herbicide test; assay type: in vivo, Setaria faberi
# How it was run: as §2
# [23] = tested on: barnyardgrass; test: Test B pre-/postemergence herbicide test; assay type: in vivo, Echinochloa crus-galli; conditions: for Barnyardgrass plant response rating: postemergence
# How it was run: as §3
# [24] = tested on: velvetleaf; test: Test B pre-/postemergence herbicide test; assay type: in vivo, Abutilon theophrasti; conditions: for Velvetleaf plant response rating: postemergence
# How it was run: as §4
# [25] = Postemergence, 500 g ai/ha, 0 to 100 scale, 0 no effect, 100 complete control
# [26] = Postemergence, 2000 g ai/ha, 0 to 100 scale, 0 no effect, 100 complete control
# [27] = Preemergence, 2000 g ai/ha, visual rating, 0 to 100 scale (0 no effect, 100 complete control)
# [28] = preemergence, 500 g ai/ha, visual injury, 0 to 100 scale (0 no effect, 100 complete control)
# [29] = 125 g ai/ha, visual rating, scale 0 (no effect) to 100 (complete control)
# [30] = 500 g ai/ha, scale 0 to 100, 0 is no effect, 100 is complete control
# [31] = 125 g ai/ha, 0 is no effect, 100 is complete control, preemergence
# [32] = 500 g ai/ha, visual rating, 0 = no effect, 100 = complete control, preemergence
structure (smiles),measurement,setting,value
Cn1nc(C(C)(C)C)cc1C(=O)Nc1cccc(C(=O)NC2CC2)n1 [Compound 315],Ducksalad plant response rating,[1],0
same,Barnyardgrass plant response rating,[2]; [25],20
same,"Plant response rating, Barnyardgrass",[2]; [26],20
same,Barnyardgrass plant response rating,[2]; [27],5
same,Barnyardgrass plant response rating,[2]; [28],5
same,Blackgrass plant response rating,[3]; [29],0
same,Blackgrass plant response rating,[3]; [30],0
same,"Plant response rating (0 to 100 scale), Cocklebur",[4]; [31],0
same,Cocklebur plant response rating,[4]; [29],20
same,"Plant response rating, Cocklebur",[4]; [32],0
same,Cocklebur plant response rating,[4]; [30],20
same,"Plant response rating (0 to 100 scale), Morningglory",[5]; [31],0
same,Morningglory plant response rating,[5]; [29],0
same,"Plant response rating, Morningglory",[5]; [32],0
same,Morningglory plant response rating,[5]; [30],20
same,"Plant response rating (0 to 100 scale), Rice","[6]; 125 g ai/ha, 0 is no effect, 100 is complete control",0
same,"Plant response rating, Rice","[6]; 500 g ai/ha, visual rating, 0 = no effect, 100 = complete control",0
same,Velvetleaf plant response rating,[7]; [25],0
same,"Plant response rating, Velvetleaf",[7]; [26],0
same,Velvetleaf plant response rating,[7]; [27],30
same,Velvetleaf plant response rating,[7]; [28],10
same,"Crabgrass, Large plant response rating",[8]; [25],20
same,"Plant response rating, Crabgrass, Large",[8]; [26],20
same,"Crabgrass, Large plant response rating",[8]; [27],15
same,"Crabgrass, Large plant response rating",[8]; [28],5
same,"Plant response rating (0 to 100 scale), Lambsquarters",[9]; [31],0
same,Lambsquarters plant response rating,[9]; [29],50
same,"Plant response rating, Lambsquarters",[9]; [32],80
same,Lambsquarters plant response rating,[9]; [30],60
same,"Plant response rating (0 to 100 scale), Foxtail, Giant",[10]; [31],0
same,"Foxtail, Giant plant response rating",[10]; [29],0
same,"Plant response rating, Foxtail, Giant",[10]; [32],20
same,"Foxtail, Giant plant response rating",[10]; [30],10
same,Wheat plant response rating,[11]; [29],0
same,Wheat plant response rating,[11]; [30],0
same,"Oat, Wild plant response rating",[12]; [29],0
same,"Oat, Wild plant response rating",[12]; [30],10
same,Pigweed plant response rating,[13]; [25],10
same,"Plant response rating, Pigweed",[13]; [26],20
same,Pigweed plant response rating,[13]; [27],45
same,Pigweed plant response rating,[13]; [28],15
same,"Plant response rating (0 to 100 scale), Surinam Grass",[14]; [31],0
same,Surinam Grass plant response rating,[14]; [29],20
same,"Plant response rating, Surinam Grass",[14]; [32],10
same,Surinam Grass plant response rating,[14]; [30],20
same,Rice plant response rating,[15],0
same,"Plant response rating (0 to 100 scale), Pigweed",[16]; [31],20
same,Pigweed plant response rating,[16]; [29],10
same,"Plant response rating, Pigweed",[16]; [32],100
same,Pigweed plant response rating,[16]; [30],50
same,Morningglory plant response rating,[17]; [25],0
same,"Plant response rating, Morningglory",[17]; [26],0
same,Morningglory plant response rating,[17]; [27],10
same,Morningglory plant response rating,[17]; [28],5
same,"Sedge, Umbrella plant response rating",[18],0
same,Barnyardgrass plant response rating,[19],0
same,"Plant response rating (0 to 100 scale), Corn",[20]; [31],0
same,Corn plant response rating,[20]; [29],10
same,"Plant response rating, Corn",[20]; [32],0
same,Corn plant response rating,[20]; [30],20
same,"Plant response rating (0 to 100 scale), Crabgrass, Large",[21]; [31],0
same,"Crabgrass, Large plant response rating",[21]; [29],0
same,"Plant response rating, Crabgrass, Large",[21]; [32],20
same,"Crabgrass, Large plant response rating",[21]; [30],10
same,"Foxtail, Giant plant response rating",[22]; [25],0
same,"Plant response rating, Foxtail, Giant",[22]; [26],0
same,"Foxtail, Giant plant response rating",[22]; [27],10
same,"Foxtail, Giant plant response rating",[22]; [28],0
same,"Plant response rating (0 to 100 scale), Barnyardgrass",[23]; [31],0
same,Barnyardgrass plant response rating,[23]; [29],10
same,"Plant response rating, Barnyardgrass",[23]; [32],20
same,Barnyardgrass plant response rating,[23]; [30],20
same,"Plant response rating (0 to 100 scale), Velvetleaf",[24]; [31],10
same,Velvetleaf plant response rating,[24]; [29],20
same,"Plant response rating, Velvetleaf",[24]; [32],20
same,Velvetleaf plant response rating,[24]; [30],20
